Reference: US8138168B1 (Takeda Pharmaceutical Company Limited, priority 2007, dated 2012)

molecular target: T1, Recombinant human renin (Homo sapiens, UniProt P00797); assay: In vitro enzymatic activity assay of renin inhibitors (fluorogenic peptide substrate); format: biochemical; conditions: isomers separated by preparative SFC; more or less active isomer as renin inhibitor
T1 construct: isolate the active form (residues 67-406); made in house; host or cells: FreeStyle 293-F cells (transient expression of pcDNA3.1(+)/hREN)
T1 sequence (P00797 67-406): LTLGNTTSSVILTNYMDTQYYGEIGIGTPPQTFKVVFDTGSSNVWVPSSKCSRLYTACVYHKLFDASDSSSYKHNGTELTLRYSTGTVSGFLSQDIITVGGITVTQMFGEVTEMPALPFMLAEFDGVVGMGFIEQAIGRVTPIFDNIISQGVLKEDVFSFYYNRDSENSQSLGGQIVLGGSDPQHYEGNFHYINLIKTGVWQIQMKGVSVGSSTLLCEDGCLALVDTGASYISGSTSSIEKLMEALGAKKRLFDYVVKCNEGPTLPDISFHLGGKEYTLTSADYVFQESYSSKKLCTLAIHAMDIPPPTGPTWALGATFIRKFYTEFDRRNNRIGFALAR
Summary of the method: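 Recombinant human renin (3 nM final) pre-incubated 10 min at 37 °C with compounds in pH 7.4 Hepes/EDTA/DTT/0.1 mg/mL BSA/Brij35 buffer (optionally plus 2% BSA), 5% DMSO final; fluorogenic QXL520/HiLyteFluo488 peptide substrate added.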

Row | Molecule | Eutomer / distomer designation of the separated stereoisomers
1 | (R)-3-amino-4-(4-chlorophenyl)-1-((S)-3-hydroxy-3-(1-(3-methoxypropyl)-1H-benzo[d]imidazol-2-yl)piperidin-1-yl)butan-1-one [Compound 247] | Eutomer

same assay, conditions: read-out: IC50 of Exemplified Compounds Against Renin

Row | Molecule | IC50 [nM]
2 | COCCCn1c([C@@H]2CCCN(C(=O)[C@@H]3CN(S(=O)(=O)c4cccc5ccccc45)C[C@H]3N)C2)nc2ccccc21 [Compound 354, ((3R,4S)-4-amino-1-(naphthalen-1-ylsulfonyl)pyrrolidin-3-yl)((R)-3-(1-(3-methoxypropyl)-1H-benzo[d]imidazol-2-yl)piperidin-1-yl)methanone] | 100 to 1000
3 | COCCCn1c([C@@H]2CCCN(C(=O)C[C@H](N)Cc3ccc(-n4ccc(=O)n(C)c4=O)cc3)C2)nc2ccccc21 [Compound 210, 1-(4-((R)-2-amino-4-((R)-3-(1-(3-methoxypropyl)-1H-benzo[d]imidazol-2-yl)piperidin-1-yl)-4-oxobutyl)phenyl)-3-methylpyrimidine-2,4(1H,3H)-dione] | 100 to 1000
4 | COCCCn1c([C@@H]2CCCN(C(=O)[C@@H]3CN(S(=O)(=O)c4ccc(-c5ccccc5)cc4)C[C@H]3N)C2)nc2ccccc21 [Compound 348, ((3R,4S)-4-amino-1-(biphenyl-4-ylsulfonyl)pyrrolidin-3-yl)((R)-3-(1-(3-methoxypropyl)-1H-benzo[d]imidazol-2-yl)piperidin-1-yl)methanone] | 100 to 1000
5 | COCCCn1c([C@H]2CCCN(C(=O)C[C@@H](N)Cc3ccc(Cl)cc3)C2)nc2ccccc21 [Compound 70, (S)-3-amino-4-(4-chlorophenyl)-1-((S)-3-(1-(3-methoxypropyl)-1H-benzo[d]imidazol-2-yl)piperidin-1-yl)butan-1-one] | > 1000
6 | CNC(=O)Nc1ccc(-c2ccc(C[C@@H](N)CC(=O)N3CCC[C@@H](c4nc5ccccc5n4CCCOC)C3)cc2)cc1 [Compound 175, 1-(4′-((R)-2-amino-4-((R)-3-(1-(3-methoxypropyl)-1H-benzo[d]imidazol-2-yl)piperidin-1-yl)-4-oxobutyl)biphenyl-4-yl)-3-methylurea] | < 100
7 | COCCCn1c([C@@H]2CCCN(C(=O)C[C@H](N)Cc3ccc(-n4ccccc4=O)cc3)C2)nc2ccccc21 [Compound 207] | 100 to 1000
8 | COCCCn1c([C@@H]2CCCN(C(=O)C[C@H](N)Cc3ccc(-c4ccccc4Cl)cc3)C2)nc2ccccc21 [Compound 155, (R)-3-amino-4-(2′-chlorobiphenyl-4-yl)-1-((R)-3-(1-(3-methoxypropyl)-1H-benzo[d]imidazol-2-yl)piperidin-1-yl)butan-1-one] | < 100
9 | COCCCn1c([C@@H]2CCCN(C(=O)[C@@H]3CN(C(=O)Nc4ccccc4OC)C[C@H]3N)C2)nc2ccccc21 [Compound 400, (3S,4R)-3-amino-N-(2-methoxyphenyl)-4-((R)-3-(1-(3-methoxypropyl)-1H-benzo[d]imidazol-2-yl)piperidine-1-carbonyl)pyrrolidine-1-carboxamide] | > 1000
10 | O=C(NCc1ccco1)N1CCCC(c2nc3ccccc3[nH]2)C1 (stereo not drawn) [Compound 21, 3-(1H-benzo[d]imidazol-2-yl)-N-(furan-2-ylmethyl)piperidine-1-carboxamide] | > 1000
11 | COCCCn1c([C@@H]2CCCN(C(=O)C[C@H](N)CNC(=O)c3ccc(Oc4ccccc4)cc3)C2)nc2ccccc21 [Compound 278, N-((S)-2-amino-4-((R)-3-(1-(3-methoxypropyl)-1H-benzo[d]imidazol-2-yl)piperidin-1-yl)-4-oxobutyl)-4-phenoxybenzamide] | 100 to 1000
12 | COCCCn1c([C@@H]2CCCN(C(=O)C[C@H](N)CNC(=O)C3CCCC3)C2)nc2ccccc21 [Compound 331, N-((S)-2-amino-4-((R)-3-(1-(3-methoxypropyl)-1H-benzo[d]imidazol-2-yl)piperidin-1-yl)-4-oxobutyl)cyclopentanecarboxamide] | > 1000
13 | COCCCn1c([C@@H]2CCCN(C(=O)C[C@H](N)CNC(=O)Nc3ccc(OC)cc3OC)C2)nc2ccccc21 [Compound 279, 1-((S)-2-amino-4-((R)-3-(1-(3-methoxypropyl)-1H-benzo[d]imidazol-2-yl)piperidin-1-yl)-4-oxobutyl)-3-(2,4-dimethoxyphenyl)urea] | 100 to 1000
14 | COCCCn1c([C@@H]2CCCN(C(=O)C[C@H](N)CNC(=O)c3ccc(-c4ccccc4)cc3)C2)nc2ccccc21 [Compound 264, N-((S)-2-amino-4-((R)-3-(1-(3-methoxypropyl)-1H-benzo[d]imidazol-2-yl)piperidin-1-yl)-4-oxobutyl)biphenyl-4-carboxamide] | 100 to 1000
15 | COCCCn1c([C@@H]2CCCN(C(=O)[C@@H]3CN(C(=O)c4c(Cl)cccc4Cl)C[C@H]3N)C2)nc2ccccc21 [Compound 414, ((3R,4S)-4-amino-1-(2,6-dichlorobenzoyl)pyrrolidin-3-yl)((R)-3-(1-(3-methoxypropyl)-1H-benzo[d]imidazol-2-yl)piperidin-1-yl)methanone] | > 1000
16 | CC(=O)NCCn1c([C@@H]2CCCN(C(=O)C[C@H](N)Cc3ccc(-c4ccc5c(c4)NC(=O)C5)cc3)C2)nc2ccccc21 [Compound 466, N-(2-(2-((R)-1-((R)-3-amino-4-(4-(2-oxoindolin-6-yl)phenyl)butanoyl)piperidin-3-yl)-1H-benzo[d]imidazol-1-yl)ethyl)acetamide] | 100 to 1000
17 | COCCCn1c([C@@H]2CCCN(C(=O)C[C@H](N)Cc3ccc(-c4cccnc4Cl)cc3)C2)nc2ccccc21 [Compound 167, (R)-3-amino-4-(4-(2-chloropyridin-3-yl)phenyl)-1-((R)-3-(1-(3-methoxypropyl)-1H-benzo[d]imidazol-2-yl)piperidin-1-yl)butan-1-one] | < 100
18 | COCCCn1c([C@@H]2CCCN(C(=O)C[C@H](N)Cc3ccc(-c4ccc(N5CCOCC5)nc4)cc3)C2)nc2ccccc21 [Compound 135, (R)-3-amino-1-((R)-3-(1-(3-methoxypropyl)-1H-benzo[d]imidazol-2-yl)piperidin-1-yl)-4-(4-(6-morpholinopyridin-3-yl)phenyl)butan-1-one] | < 100
19 | COCCCn1c([C@@H]2CCCN(C(=O)[C@@H]3CN(S(=O)(=O)c4ccc([N+](=O)[O-])cc4OC)C[C@H]3N)C2)nc2ccccc21 [Compound 411, ((3R,4S)-4-amino-1-(2-methoxy-4-nitrophenylsulfonyl)pyrrolidin-3-yl)((R)-3-(1-(3-methoxypropyl)-1H-benzo[d]imidazol-2-yl)piperidin-1-yl)methanone] | > 1000
20 | COCCCn1c([C@@H]2CCCN(C(=O)C[C@H](N)Cc3ccc(-c4ccc(NC(=O)NC5CC5)cc4)cc3)C2)nc2ccccc21 [Compound 171, 1-(4′-((R)-2-Amino-4-((R)-3-(1-(3-methoxypropyl)-1H-benzo[d]imidazol-2-yl)piperidin-1-yl)-4-oxobutyl)biphenyl-4-yl)-3-cyclopropylurea] | < 100
21 | COCCCn1c([C@@H]2CCCN(C(=O)[C@@H]3CN(S(=O)(=O)c4cc(C)ccc4OC)C[C@H]3N)C2)nc2ccccc21 [Compound 410, ((3R,4S)-4-amino-1-(2-methoxy-5-methylphenylsulfonyl)pyrrolidin-3-yl)((R)-3-(1-(3-methoxypropyl)-1H-benzo[d]imidazol-2-yl)piperidin-1-yl)methanone] | > 1000
22 | COCCCn1c([C@@H]2CCCN(C(=O)C[C@H](N)CNC(=O)c3ccc(-c4ccccc4)s3)C2)nc2ccccc21 [Compound 252, N-((S)-2-amino-4-((R)-3-(1-(3-methoxypropyl)-1H-benzo[d]imidazol-2-yl)piperidin-1-yl)-4-oxobutyl)-5-phenylthiophene-2-carboxamide] | < 100
23 | COCCCn1c([C@@H]2CCCN(C(=O)[C@@H]3CN(C(=O)N4CCOCC4)C[C@H]3N)C2)nc2ccccc21 [Compound 423, ((3R,4S)-4-amino-1-(morpholine-4-carbonyl)pyrrolidin-3-yl)((R)-3-(1-(3-methoxypropyl)-1H-benzo[d]imidazol-2-yl)piperidin-1-yl)methanone] | > 1000
24 | COCCCn1c([C@@H]2CCCN(C(=O)[C@@H]3CN(C(=O)Nc4cccc(Cl)c4)C[C@H]3N)C2)nc2ccccc21 [Compound 378, (3S,4R)3-amino-N-(3-chlorophenyl)-4-((R)-3-(1-(3-methoxypropyl)-1H-benzo[d]imidazol-2-yl)piperidine-1-carbonyl)pyrrolidine-1-carboxamide] | 100 to 1000
25 | COCCCn1c([C@@H]2CCCN(C(=O)[C@@H]3CN(S(=O)(=O)c4c(Cl)cc(Cl)cc4Cl)C[C@H]3N)C2)nc2ccccc21 [Compound 340, ((3R,4S)-4-amino-1-(2,4,6-trichlorophenylsulfonyl)pyrrolidin-3-yl)((R)-3-(1(3-methoxypropyl)-1H-benzo[d]imidazol-2-yl)piperidin-1-yl)methanone] | 100 to 1000
26 | COCCCn1c([C@@H]2CCCN(C(=O)[C@@H]3CN(S(=O)(=O)c4cccc(Oc5ccccc5)c4)C[C@H]3N)C2)nc2ccccc21 [Compound 368, ((3R,4S)-4-amino-1-(3-phenoxyphenylsulfonyl)pyrrolidin-3-y1)((R)-3-(1-(3-methoxypropyl)-1H-benzo[d]imidazol-2-yl)piperidin-1-yl)methanone] | 100 to 1000
27 | COCCCn1c([C@@H]2CCCN(C(=O)C[C@H](N)Cc3ccc(N4CCC(CO)CC4)cc3)C2)nc2ccccc21 [Compound 235, (R)-3-amino-4-(4-(4-(hydroxymethyl)piperidin-1-yl)phenyl)-1-((R)-3-(1-(3-methoxypropyl)-1H-benzo[d]imidazol-2-yl)piperidin-1-yl)butan-1-one] | 100 to 1000
